Test results published in patent EP4488279A1, “SUBSTITUTED HEXAHYDRO-2H-PYRAZINO[1,2-A]PYRAZIN-1(6H)-ONE DERIVATIVES AS ACTIVATORS OF HUMAN CASEINOLYTIC PROTEASE P (HSCLPP)” (Centro Atlantico del Medicamento S.A (Ceamed, S.A), priority 2023, dated 2025).

Key:
Yeast + HsCIpP = test: Yeast growth inhibition screen, yeast expressing human ClpP; assay type: cell-based; settings: Saccharomyces cerevisiae, 24 h, read-out: Yeast + HsCIpP GI50
Description: This technique allows to directionally assemble several DNA fragments into one single DNA piece. It is based on plasmid libraries that share the same DNA backbone but differ in the type of the insert. The assembly of the final cassette is based on the "Golden Gate Cloning" method. Human CLPP gene sequence (codon-optimized for yeast translation) was amplified with well-designed primers from a plasmid kindly provided by Dr. Michael David Tyers (University of Montreal). Once amplified, a MoClo reaction was performed to obtain the final integrative cassette. This cassette was composed as follows: • Type 1: ConLS 3' connector. • Type 2: TDH3 gene promoter (strong and constitutive expression). • Type 3: Amplified human CLPP gene. • Type 4: ADH1 gene terminator. • Type 5: ConR1 5' connector. • Type 6: LEU2 gene as selectable marker for yeast. • Type 7: 3' HO gene homology sequence for yeast integration. • Type 8a: KanR-ColE1 sequence for bacterial amplification and antibiotic resistance. • Type 8b: 5' HO gene homology sequence for yeast integration.
Digestion patterns with several restriction enzymes were carried out to confirm the success of the MoClo system. An extra restriction enzyme reaction (Notl) was performed to linearize the DNA fragment and deplete the bacterial part.
(§1) These cells contain mutants in YRS1, YRR1, PDR1 and PDR3 genes, which are involved in polydrug and pleiotropic resistance networks.
Yeast cells were transformed with the linearized cassette and transformant colonies were selected on minimum media without leucine. Independent clones were checked by PCR and positive ones were stored at -80 °C until use.
(§2) The yeast (both HsCpIP+ and HsCIpP-) are incubated in petri dishes with YPD (Yeast extract peptone dextrose) at 25 °C overnight, after which a colony is isolated, suspended in a flask with fresh YPD and incubating again under the same conditions but with agitation. […] 100 µl of this solution was then placed into the appropriated wells of a standard 96-well plate. Stock solutions (DMSO, 10 mM) of the compounds to be tested are diluted in YPD to 2X of their final concentrations to be tested, and 100 µl added to the appropriate wells. 100 µl of YPD was added to wells designated as the negative control wells, while ONC206 (0.5 µM) was used as the positive control. Once all compounds were added to the plate, an initial T = 0 absorbance value was recorded at 600 Nm. The plate was then incubated at 25 °C with gentle shaking for 24 h. The plates can either be read at multiple time points using a TECAN Spark® Multimode Microplate Reader, or at the end of the experiment using a standard spectrophotometer.
(§3) Table 2: Growth inhibition (GI50) values for compounds of the present invention in yeast containing HsCIpP, and yeast without HsCIpP.

Yeast - HsCIpP = test: Yeast growth inhibition screen, yeast without human ClpP (selectivity control); assay type: cell-based; settings: Saccharomyces cerevisiae; yeast without HsCIpP, 24 h at 25 °C, absorbance at 600 nm; read-out: Yeast - HsCIpP GI50
Experimental: as §1, §2, §3

4T1 = test: MTT cell viability assay, 4T1; assay type: cell-based; settings: Mus musculus; 4T1 cells, 48 H, MTT, average of at least two independent experiments; read-out: IC50 4T1 48 H
Experimental: This a mouse epithelial breast cancer cell line classified as being triple negative and mimics human breast cancer; stage IV.
Cell viability was assayed by measuring the mitochondrial reduction of the tetrazolium salt 3-(4,5-methyltiazol-2yl)-2,5diphenyl-tetrazolium bromide] (MTT) (Applichen; A2231,0010) [Mosmann T. J Immunol Methods. […] Oncogene. […] Cells were seeded at a density according to their exponential growth phase (normally 1000 to 5000/well). The cells were cultured at 37 °C in the dark in air containing 5% CO2. After 24h either vehicle (0.05% DMSO), or drug, was added to culture medium at the indicated concentrations (10 to 0,01microM). […] The medium was then removed, and the precipitated formazan was solubilized by the addition of DMSO (200 µL).

MDA-MB-231 = test: MTT cell viability assay, MDA-MB-231; assay type: cell-based; settings: Homo sapiens, MDA-MB-231 cells, 72 H, average of at least two independent experiments
Experimental: This a human breast cancer cell line derived from a metastatic site from a person.
(§4) Cell viability was assayed by measuring the mitochondrial reduction of the tetrazolium salt 3-(4,5-methyltiazol-2yl)-2,5diphenyl-tetrazolium bromide] (MTT) (Applichen; A2231,0010) [Mosmann T. J Immunol Methods. […] Oncogene. […] Cells were seeded at a density according to their exponential growth phase (normally 1000 to 5000/well). The cells were cultured at 37 °C in the dark in air containing 5% CO2. After 24h either vehicle (0.05% DMSO), or drug, was added to culture medium at the indicated concentrations (10 to 0,01microM). After another 72 h, MTT (0.3 mg/ml) was added to cells, followed by incubation for 2-4h at 37 °C in the dark. The medium was then removed, and the precipitated formazan was solubilized by the addition of DMSO (200 µL).

U2 OS = test: MTT cell viability assay, U2 OS; assay type: cell-based; settings: Homo sapiens, U2OS, U2 OS cells, 72 H, average of at least two independent experiments
Experimental: U2 OS [American Type Culture Collection (ATCC) reference number HTB-96]. This is a human bone cancer (a moderately differentiated sarcoma) cell derived from an osteosarcoma patient.
as §4

DU-145 = test: MTT cell viability assay, DU-145; assay type: cell-based; settings: Homo sapiens, DU-145 cells, 72 H, average of at least two independent experiments
Experimental: This a human prostate cancer cell line derived from a metastatic site (brain) of a person.
as §4

PANC1 = test: MTT cell viability assay, PANC1; assay type: cell-based; settings: Homo sapiens, PANC-1, PANC1 cells, 72 H, average of at least two independent experiments
Experimental: This a human cancer cell line derived from the pancreas of a person.
as §4

4T1 tumours = test: 4T1 syngeneic tumour model in immunocompetent mice; assay type: in vivo, Balb/c mice; settings: 25 mg/kg PO three times per week
Experimental: 4T1 syngeneic tumours were induced in female immunocompetent Balb/c mice by inject 12500 4T1 cells (passage# <7, in PBS, 100 µL) into their left inguinal mammary fat pad. Once tumour volumes [measure using the formula V = 0.5(length x width^2)] reached […], treatment with either vehicle, or compound in vehicle, was began. Compounds were administered orally (PO) at a constant dose (typically 25 mg/kg) three times per week (Monday, Wednesday and Friday). Compounds (as ether their free base or salt) were formulated as either solutions or homogenous suspensions in a vehicle of 10% Cremaphor RH40 + 90% saline for injection. Formulations were prepared at concentrations (mg/mL) = Dose/5 (e.g. a dose of 25 mg/Kg used a formulation of 5 mg/ml). Once treatments began, tumour volumes and body weights were recorded on each treatment day. Treatments were continued until 25-28 days after first treatment day, after which the mice were sacrificed. Animals whose tumour reached […] during the experiment were also sacrificed.

## O=C1C2CN(Cc3cccc(F)c3)CCN2CCN1Cc1cccc(Cl)c1 (stereo not drawn) [Compound 4]
Yeast + HsCIpP
  GI50: 210 nM
Yeast - HsCIpP
  GI50: > 10000 nM
4T1
  IC50: 330 nM
MDA-MB-231
  IC50: 450 nM
U2 OS
  IC50: 500 nM
DU-145
  IC50: 850 nM
PANC1
  IC50: 335 nM
4T1 tumours; 4T1 tumour-bearing Balb/c mice, during the experimental period
  changes in body weights: no significant changes
4T1 tumours; established 4T1 tumours, female Balb/c mice, versus vehicle, p < 0.01
  Tumour growth reduced: 50%
